In the assay the target is human Nav1.8 (Homo sapiens, UniProt Q9Y5Y9). Description: SyncroPatch384PE assay (automated patch clamp). Particulars: human Nav1.8/b3 CHO cells. The class given is cell-based.
The mark [1] stands for this setting: inactivated state block (P2 measurement), read-out: P2 IC50.
[2] abbreviates: resting state block (P1 measurement), read-out: P1 IC50.

As a reminder, the IC50 is the midpoint of a concentration-inhibition curve.

Where a name gives a salt, the structure may show the parent alone. Read-outs that look alike come from different tables or passages of the source. Some results are limits rather than exact numbers.

Sequence of human Nav1.8 (Q9Y5Y9 whole entry): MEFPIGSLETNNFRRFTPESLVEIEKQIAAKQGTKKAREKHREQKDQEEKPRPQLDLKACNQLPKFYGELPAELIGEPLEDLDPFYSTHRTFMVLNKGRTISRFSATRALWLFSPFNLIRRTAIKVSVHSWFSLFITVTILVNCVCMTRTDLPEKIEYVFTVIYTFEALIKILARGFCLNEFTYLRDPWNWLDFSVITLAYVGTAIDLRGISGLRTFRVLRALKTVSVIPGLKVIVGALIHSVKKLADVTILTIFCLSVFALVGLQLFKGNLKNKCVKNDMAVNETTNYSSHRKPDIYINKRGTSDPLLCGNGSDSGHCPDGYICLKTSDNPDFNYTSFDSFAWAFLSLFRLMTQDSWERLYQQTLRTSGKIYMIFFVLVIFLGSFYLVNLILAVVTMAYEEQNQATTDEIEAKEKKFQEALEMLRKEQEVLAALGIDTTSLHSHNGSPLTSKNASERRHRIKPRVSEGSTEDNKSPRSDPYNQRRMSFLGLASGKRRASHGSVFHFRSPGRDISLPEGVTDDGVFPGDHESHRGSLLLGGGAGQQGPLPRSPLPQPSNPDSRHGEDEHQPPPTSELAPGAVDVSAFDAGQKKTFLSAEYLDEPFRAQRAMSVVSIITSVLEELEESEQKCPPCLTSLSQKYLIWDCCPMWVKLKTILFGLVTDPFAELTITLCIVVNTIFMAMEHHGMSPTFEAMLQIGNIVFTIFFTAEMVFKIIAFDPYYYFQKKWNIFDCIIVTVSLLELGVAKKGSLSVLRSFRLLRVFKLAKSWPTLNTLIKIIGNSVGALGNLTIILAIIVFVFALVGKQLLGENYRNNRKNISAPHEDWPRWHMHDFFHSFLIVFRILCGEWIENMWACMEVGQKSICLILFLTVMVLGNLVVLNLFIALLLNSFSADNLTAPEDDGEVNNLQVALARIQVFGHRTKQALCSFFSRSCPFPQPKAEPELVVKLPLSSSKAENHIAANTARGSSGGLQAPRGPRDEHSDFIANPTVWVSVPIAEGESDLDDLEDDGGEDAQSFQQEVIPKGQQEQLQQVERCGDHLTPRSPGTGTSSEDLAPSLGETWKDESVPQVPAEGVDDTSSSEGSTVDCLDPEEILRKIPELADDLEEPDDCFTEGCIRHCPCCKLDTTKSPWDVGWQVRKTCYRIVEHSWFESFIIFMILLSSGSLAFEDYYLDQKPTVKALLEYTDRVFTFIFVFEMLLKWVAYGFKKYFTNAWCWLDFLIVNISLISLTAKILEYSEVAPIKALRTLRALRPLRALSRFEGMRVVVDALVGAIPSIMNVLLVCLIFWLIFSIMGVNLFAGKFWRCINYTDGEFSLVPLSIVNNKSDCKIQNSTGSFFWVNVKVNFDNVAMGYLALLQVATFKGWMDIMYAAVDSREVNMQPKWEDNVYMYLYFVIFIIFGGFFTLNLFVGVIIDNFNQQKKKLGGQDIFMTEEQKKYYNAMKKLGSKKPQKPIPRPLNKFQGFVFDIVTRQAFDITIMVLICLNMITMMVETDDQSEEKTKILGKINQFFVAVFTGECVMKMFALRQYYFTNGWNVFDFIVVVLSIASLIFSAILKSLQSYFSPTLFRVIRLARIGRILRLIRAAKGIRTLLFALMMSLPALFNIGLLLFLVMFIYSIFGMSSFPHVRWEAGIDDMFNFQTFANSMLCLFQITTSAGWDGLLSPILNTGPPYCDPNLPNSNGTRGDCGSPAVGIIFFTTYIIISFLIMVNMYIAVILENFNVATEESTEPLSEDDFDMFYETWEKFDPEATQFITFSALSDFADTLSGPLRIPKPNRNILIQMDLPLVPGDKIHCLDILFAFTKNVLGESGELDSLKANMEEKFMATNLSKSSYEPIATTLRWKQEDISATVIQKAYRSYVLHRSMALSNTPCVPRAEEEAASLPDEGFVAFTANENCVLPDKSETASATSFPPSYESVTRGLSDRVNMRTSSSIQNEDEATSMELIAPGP

Consider `Cc1c(-c2ccccc2)cnc(N2CCCC(F)(F)CC2)c1C(=O)Nc1cccc([S@@](C)(=N)=O)c1` [Example 103, (S)-2-(4,4-difluoroazepan-1-yl)-4-methyl-N-(3-(S-methylsulfonimidoyl)phenyl)-5-phenylnicotinamide], for which the IC50 reads like this: under setting [1], at most 5 nM; under setting [2], at most 5 nM.

With `Cc1c(-c2ccc(C#N)cc2)cnc(N2CCCC(F)(F)CC2)c1C(=O)NC12CC(C(N)=O)(C1)C2` [Example 134, N-(3-carbamoylbicyclo[1.1.1]pentan-1-yl)-5-(4-cyanophenyl)-2-(4,4-difluoroazepan-1-yl)-4-methylnicotinamide], the IC50 was above 200 nM under setting [1] and above 200 nM under setting [2].

Consider `Cc1c(C#N)c(C(F)(F)F)nc(N2CCCC(F)(F)CC2)c1C(=O)Nc1cccc([S@@](C)(=O)=NC(=O)C(C)(C)N)c1` [Example 227, (R)-N-(3-(N-(2-amino-2-methylpropanoyl)-S-methylsulfonimidoyl)phenyl)-5-cyano-2-(4,4-difluoroazepan-1-yl)-4-methyl-6-(trifluoromethyl)nicotinamide formate], for which the IC50 runs as follows: under setting [1], at most 5 nM; under setting [2], at most 5 nM.

As for `Cc1c(-c2ccc(C#N)cc2)cnc(N2CCCC(F)(F)CC2)c1C(=O)Nc1cccc(S(C)(=N)=O)c1` (stereo not shown) [Example 81], the IC50 was at most 5 nM under setting [1] and at most 5 nM under setting [2].

Regarding `Cc1c(-c2cnn(C)c2)cnc(N2CCCC(F)(F)CC2)c1C(=O)Nc1cccc([S@@](C)(=O)=NC(=O)[C@@H](C)N)c1` [Example 75, N-(3-((R)-N-(D-alanyl)-S-methylsulfonimidoyl)phenyl)-2-(4,4-difluoroazepan-1-yl)-4-methyl-5-(1-methyl-1H-pyrazol-4-yl)nicotinamide], the IC50 lay within 5 to 50 nM under setting [1] and 5 to 50 nM under setting [2].

Take `Cc1c(-c2cnn(C)c2)cnc(N2CCCC(F)(F)CC2)c1C(=O)NC12CC(C(=O)O)(C1)C2` [Example 142, 3-(2-(4,4-difluoroazepan-1-yl)-4-methyl-5-(1-methyl-1H-pyrazol-4-yl)nicotinamido)bicyclo[1.1.1]pentane-1-carboxylic acid]: the IC50 under setting [1] is at most 5 nM and the IC50 under setting [2] was at most 5 nM.

Take `Cc1nc(N2CCCC(F)(F)CC2)c(C(=O)Nc2cccc([S@](C)(=N)=O)c2)c(C)c1C(F)(F)F` (single isomer, unassigned) [Example 186]: the IC50 by setting is: under setting [1], at most 5 nM; under setting [2], at most 5 nM.

As to `Cc1c(C(F)(F)F)nnc(N2CCCC(F)(F)CC2)c1C(=O)Nc1ccnc(S(=N)(N)=O)c1` (stereo not shown) [Example 119, 3-(4,4-difluoroazepan-1-yl)-5-methyl-N-(2-sulfamidimidoylpyridin-4-yl)-6-(trifluoromethyl)pyridazine-4-carboxamide], the IC50 lay in the range of 5 to 50 nM under setting [1] and 5 to 50 nM under setting [2].

With `Cc1c(-c2cnn(C)c2)cnc(N2CCCC(F)(F)CC2)c1C(=O)Nc1cccc([S@](C)(=N)=O)c1` [Example 45, (R)-2-(4,4-difluoroazepan-1-yl)-4-methyl-5-(1-methyl-1H-pyrazol-4-yl)-N-(3-(S-methylsulfonimidoyl)phenyl)nicotinamide], the IC50 under setting [1] lay in the range of 50 to 100 nM and the IC50 under setting [2] fell in the range of 50 to 100 nM.

As to `Cc1c(-c2cnn(C)c2)nnc(N2CCCC(F)(F)CC2)c1C(=O)NC12CC(C(N)=O)(C1)C2` [Example 141, N-(3-carbamoylbicyclo[1.1.1]pentan-1-yl)-3-(4,4-difluoroazepan-1-yl)-5-methyl-6-(1-methyl-1H-pyrazol-4-yl)pyridazine-4-carboxamide], the IC50 is, setting by setting: under setting [1], at most 5 nM; under setting [2], at most 5 nM.

As for `Cc1c(N2CC3(COC3)C2)nnc(N2CCCC(F)(F)CC2)c1C(=O)Nc1cccc([S@](C)(=N)=O)c1` [Example 140, (R)-3-(4,4-difluoroazepan-1-yl)-5-methyl-N-(3-(S-methylsulfonimidoyl)phenyl)-6-(2-oxa-6-azaspiro[3.3]heptan-6-yl)pyridazine-4-carboxamide], the IC50 is, setting by setting: under setting [1], above 200 nM; under setting [2], above 200 nM.

`CNCC(=O)N=[S@](C)(=O)c1cccc(NC(=O)c2c(N3CCCC(F)(F)CC3)ncc(-c3ccc(C#N)cc3)c2C)c1` [Example 50, (R)-5-(4-cyanophenyl)-2-(4,4-difluoroazepan-1-yl)-4-methyl-N-(3-(S-methyl-N-(methylglycyl)sulfonimidoyl)phenyl)nicotinamide]: the IC50 was at most 5 nM under setting [1] and at most 5 nM under setting [2].

For `C[S@@](=N)(=O)c1cc(NC(=O)c2cc(Cl)c(C(F)(F)F)cc2N2CCO[C@H](C(F)(F)F)C2)ccn1` [Example 218, 5-chloro-N-(2-((R)—S-methylsulfonimidoyl)pyridin-4-yl)-4-(trifluoromethyl)-2-((S)-2-(trifluoromethyl)morpholino)benzamide], the IC50 lay within 5 to 50 nM under setting [1] and 5 to 50 nM under setting [2].

As for `Cc1c(C(F)(F)F)cnc(N2CCCC(F)(F)CC2)c1C(=O)Nc1cccc([S@@](C)(=O)=NC(=O)CO)c1` [Example 195, (R)-2-(4,4-difluoroazepan-1-yl)-N-(3-(N-(2-hydroxyacetyl)-S-methylsulfonimidoyl)phenyl)-4-methyl-5-(trifluoromethyl)nicotinamide], the IC50 reads like this: under setting [1], at most 5 nM; under setting [2], at most 5 nM.

`Cc1cc(C#N)nc(N2CCCC(F)(F)CC2)c1C(=O)Nc1ccnc([S@](C)(=N)=O)c1` [Example 204, (R)-6-cyano-2-(4,4-difluoroazepan-1-yl)-4-methyl-N-(2-(S-methylsulfonimidoyl)pyridin-4-yl)nicotinamide]: the IC50 is, setting by setting: under setting [1], 5 to 50 nM; under setting [2], 5 to 50 nM.

As to `CNCC(=O)N=[S@](C)(=O)c1cccc(NC(=O)c2c(N3CCCC(F)(F)CC3)ncc(C#N)c2C)c1` [Example 126, (R)-5-cyano-2-(4,4-difluoroazepan-1-yl)-4-methyl-N-(3-(S-methyl-N-(methylglycyl)sulfonimidoyl)phenyl)nicotinamide], the IC50 by setting is: under setting [1], at most 5 nM; under setting [2], at most 5 nM.

For the compound `Cc1c(C(F)(F)F)cnc(N2CCCC(F)(F)CC2)c1C(=O)Nc1ccnc([S@@](C)(=N)=O)c1` (single isomer, unassigned) [Example 188], the IC50 is at most 5 nM under setting [1] and at most 5 nM under setting [2].

As for `CNCC(=O)N=[S@](C)(=O)c1cccc(NC(=O)c2c(N3CCCC(F)(F)CC3)nnc(C(F)(F)F)c2C)c1` [Example 43, (R)-3-(4,4-difluoroazepan-1-yl)-5-methyl-N-(3-(S-methyl-N-(methylglycyl)sulfonimidoyl)phenyl)-6-(trifluoromethyl)pyridazine-4-carboxamide], the IC50 was at most 5 nM under setting [1] and at most 5 nM under setting [2].

As for `COc1ccc(-c2nnc(N3CCCC(F)(F)CC3)c(C(=O)Nc3cccc([S@](C)(=N)=O)c3)c2C)cc1` (single isomer, unassigned) [Example 138], the IC50 is 100 to 200 nM under setting [1] and above 200 nM under setting [2].

In the case of `Cc1c(Cl)c(-c2cnn(C)c2)nc(N2CCCC(F)(F)CC2)c1C(=O)Nc1cccc([S@](C)(=N)=O)c1` [Example 162, (R)-5-chloro-2-(4,4-difluoroazepan-1-yl)-4-methyl-6-(1-methyl-1H-pyrazol-4-yl)-N-(3-(S-methylsulfonimidoyl)phenyl)nicotinamide], the IC50 was at most 5 nM under setting [1] and at most 5 nM under setting [2].
